Our source for the IC50 values is the Kinase Knowledgebase extract (Sharma et al. 2016).

“And” between values parts separate entries of the source, which are not always exact repeats. Identical values can stand only once. Where only a bound is given, the exact number is not on record here.

Sequence of PIK3CD (Human) (O00329 whole entry, looked up): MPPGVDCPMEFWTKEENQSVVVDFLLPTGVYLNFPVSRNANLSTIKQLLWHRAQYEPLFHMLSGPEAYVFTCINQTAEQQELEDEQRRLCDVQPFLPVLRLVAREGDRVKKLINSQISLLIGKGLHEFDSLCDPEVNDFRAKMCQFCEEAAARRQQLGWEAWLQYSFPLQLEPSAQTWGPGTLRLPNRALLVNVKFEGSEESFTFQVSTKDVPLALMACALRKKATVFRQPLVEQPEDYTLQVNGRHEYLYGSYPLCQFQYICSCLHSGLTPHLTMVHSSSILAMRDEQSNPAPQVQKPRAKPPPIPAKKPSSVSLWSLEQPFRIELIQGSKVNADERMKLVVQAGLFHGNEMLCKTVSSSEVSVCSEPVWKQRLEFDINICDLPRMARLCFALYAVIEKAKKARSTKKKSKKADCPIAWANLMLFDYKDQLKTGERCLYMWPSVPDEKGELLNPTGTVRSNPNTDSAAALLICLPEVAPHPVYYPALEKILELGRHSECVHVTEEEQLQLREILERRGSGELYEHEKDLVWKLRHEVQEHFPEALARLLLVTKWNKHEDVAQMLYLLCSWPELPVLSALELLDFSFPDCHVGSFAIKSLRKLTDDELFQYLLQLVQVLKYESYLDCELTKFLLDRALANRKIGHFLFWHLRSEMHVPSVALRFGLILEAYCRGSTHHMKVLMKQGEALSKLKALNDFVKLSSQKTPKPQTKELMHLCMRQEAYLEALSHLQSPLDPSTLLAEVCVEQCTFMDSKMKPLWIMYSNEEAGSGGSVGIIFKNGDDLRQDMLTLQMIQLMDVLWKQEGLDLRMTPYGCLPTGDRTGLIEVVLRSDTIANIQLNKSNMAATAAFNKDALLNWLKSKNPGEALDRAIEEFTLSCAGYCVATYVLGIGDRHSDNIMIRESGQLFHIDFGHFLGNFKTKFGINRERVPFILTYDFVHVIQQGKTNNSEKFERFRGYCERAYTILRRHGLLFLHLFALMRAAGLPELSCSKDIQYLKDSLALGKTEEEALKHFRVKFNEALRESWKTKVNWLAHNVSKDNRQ

This test addresses PIK3CD (Human) (UniProt O00329). In words: Enzyme Assay.
In the case of `CCn1c(-c2cnc(C)nc2)nc2c(O[C@H]3CCN(c4cncnc4)C3)ncnc21`, the IC50 worked out at 47 nM.
As for `CCC(=O)N1CC[C@H](Oc2ncnc3c2nc(-c2cnn4c2CCC4)n3C)C1`, the IC50 turned out to be 23 nM.
Under `CCn1ncc(-c2nc3c(O[C@H]4CCN(C(=O)Oc5ccccc5)C4)ncnc3n2C)c1C` stands 90 nM; under `CCn1c(-c2ccc(OC(F)F)nc2)nc2c(O[C@H]3CCN(C(=O)OC(C)(C)C)C3)ncnc21`, 15 nM.
Under `Cn1c(-c2cncc3ccccc23)nc2c(O[C@H]3CCN(C(=O)OC(C)(C)C)C3)ncnc21` stands 320 nM; under `CCn1ncc(-c2nc3c(S[C@H]4CCN(C(=O)OC(C)(C)C)C4)ncnc3n2C)c1C`, 23 nM; under `CCn1ncc(-c2nc3c(O[C@H]4CCN(C(=O)c5cc(C)[nH]n5)C4)ncnc3n2C)c1C`, 28 nM.
Under `CCn1ncc(-c2nc3c(O[C@H]4CCN(C(=O)c5ccn[nH]5)C4)ncnc3n2C)c1C` stands 3 nM.
For `CC[C@@H]1CN(C(=O)C2CC2)C[C@H]1Oc1ncnc2c1nc(-c1cnc(C)nc1)n2CC.CC[C@H]1CN(C(=O)C2CC2)C[C@@H]1Oc1ncnc2c1nc(-c1cnc(C)nc1)n2CC`, the concentration for half-maximal inhibition (IC50) was 6.1 nM and 20 nM.
Compound `CCn1ncc(-c2nc3c(O[C@H]4CCN(C(=O)c5nc(C)oc5C)C4)ncnc3n2C)c1C` returned an IC50 of 7.2 nM.
To `CCn1c(-c2ccc(OC)c(F)c2)nc2c(O[C@H]3CCN(C(=O)C4CC4)C3)ncnc21` belongs 2.2 nM; to `CCn1c(-c2cnc(C)nc2)nc2c(O[C@H]3CCN(c4cccnc4)C3)ncnc21`, 10 nM.
In the case of `CCC(=O)N1CC[C@H](Oc2ncnc3c2nc(-c2cnc(C(C)(C)C)s2)n3C)C1`, the IC50 was 1.6 nM.
On to `CCn1ncc(-c2nc3c(O[C@H]4CCN(Cc5ccc(N(C)C)cc5)C4)ncnc3n2C)c1C`, for which the half-maximal inhibitory concentration (IC50) came to 3100 nM.
Take `CCC(=O)N1CC[C@H](Oc2ncnc3c2nc(-c2cnc4[nH]nc(C)c4c2)n3C)C1`: the half-maximal inhibitory concentration (IC50) is 23 nM. This IC50 is about 130-fold lower than that of the compound before.
To `CCn1ncc(-c2nc3c(O[C@@H]4CC[C@H](n5c(=O)[nH]c6ncccc65)C4)ncnc3n2C)c1C` belongs 120 nM; to `CCn1ncc(-c2nc3c(O[C@H]4CCN(C(=O)C(C)C)C4)ncnc3n2C)c1C`, 4 nM; to `CCn1ncc(-c2nc3c(O[C@H]4CCN(C(=O)C5CCCO5)C4)ncnc3n2C)c1C` (some centres not stated), 12 nM.
For the compound `CCn1c(-c2cnc(C)nc2)nc2c(O[C@H]3CCN(C(=O)N4CCC(C)(O)C4)C3)ncnc21` (some centres not stated), the 50% inhibitory concentration (IC50) was 7.3 nM.
With `CCn1ncc(-c2nc3c(O[C@H]4CCN(C(=O)c5nonc5C)C4)ncnc3n2C)c1C`, the half-inhibitory concentration (IC50) was 26 nM.
Compound `CCn1c(-c2cnc(C)nc2)nc2c(O[C@H]3CCN(C(=O)C=C(C)C)C3)ncnc21` yielded an IC50 of 4.4 nM.
Under `Cn1c(-c2ccc(N3CCOCC3)nc2)nc2c(O[C@H]3CCN(C(=O)OC(C)(C)C)C3)ncnc21` stands 4400 nM; under `CCn1c(-c2cnc(C)nc2)nc2c(O[C@H]3CCN(c4ccccc4C)C3)ncnc21`, 85 nM; under `CCn1c(-c2cnn(-c3ccccc3)c2C)nc2c(O[C@H]3CCN(C(=O)C4CC4)C3)ncnc21`, below 1 nM.
The compound `CCCn1c(-c2cnc(C)nc2)nc2c(O[C@H]3CCN(C(=O)CC)C3)ncnc21` gave an IC50 of 130 nM. This counts as sub-micromolar.
To `CCn1ncc(-c2nc3c(O[C@H]4CCN(C(=O)Oc5ccc(OC)cc5)C4)ncnc3n2C)c1C` belongs 65 nM; to `CCn1ncc(-c2nc3c(O[C@H]4CCN(C(=O)c5cccnc5)C4)ncnc3n2C)c1C`, 19 nM; to `CCC(=O)N1CC[C@H](Oc2ncnc3c2nc(-c2cnc(OC)c(C)c2)n3C)C1`, 2.1 nM.
Regarding `CCn1c(-c2cnc(C)nc2)nc2c(O[C@H]3CCN(c4cccc(F)c4)C3)ncnc21`, the half-maximal inhibitory concentration (IC50) is 2.2 nM.
`CCn1c(-c2cnc(C)nc2)nc2c(O[C@H]3CCN(C(=O)N4C5CCC4CC5)C3)ncnc21`: the IC50 amounted to 10 nM. Against the preceding compound, the IC50 is about 4.5-fold higher.
As to `CCn1ncc(-c2nc3c(O[C@H]4CCN(C(=O)C(C)(C)C)C4)ncnc3n2C)c1C`, the IC50 is 22 nM. This IC50 is about 2.2-fold higher than that of the compound before.
In turn, `CCn1c(-c2cnc(C)nc2)nc2c(O[C@H]3CC[C@@H](NC(=O)C4CC4)CC3)ncnc21` returned a half-inhibitory concentration (IC50) of 120 nM. Compared with the last compound, the IC50 is about 5.5-fold higher.
To `CCn1ncc(-c2nc3c(OC4CCN(C(=O)C5CCCC5)C4)ncnc3n2C)c1C` (configuration not stated) belongs 9.4 nM.
In the case of `CCn1ncc(-c2nc3c(O[C@H]4CCN(S(=O)(=O)C(C)C)C4)ncnc3n2C)c1C`, the IC50 was 530 nM.
On to `CCn1c(-c2cnc(C)nc2)nc2c(O[C@H]3CCN(C(=O)C4CC(C)C4)C3)ncnc21` (some centres not stated), for which the half-inhibitory concentration (IC50) worked out at 1.3 nM.
As for `CCn1c(-c2cnc(C)nc2)nc2c(O[C@H]3CCN(C(=O)C4CC4)[C@@H]3C)ncnc21`, the IC50 is 2.8 nM.
Under `CCn1ncc(-c2nc3c(O[C@H]4CCN(C(=O)c5c(C)noc5C)C4)ncnc3n2C)c1C` stands 88 nM; under `CCn1c(-c2cnn3c2CCCC3)nc2c(O[C@H]3CCN(C(=O)C4CC4)C3)ncnc21`, below 1 nM.
Under `CCn1ncc(-c2nc3c(O[C@H]4CCN(C(=O)c5c[nH]nc5C(F)(F)F)C4)ncnc3n2C)c1C` stands 21 nM; under `CCn1c(-c2ccc(OC)nc2)nc2c(O[C@H]3CCN(C(=O)C4CC4)C3)ncnc21`, 1 nM.
Under `CCn1c(-c2cnc(C)nc2)nc2c(O[C@H]3CCN(C(=O)N(C)C4CC4)C3)ncnc21` stands 28 nM.
`CCn1ncc(-c2nc3c(OC4CCN(C(=O)CC5CCOCC5)C4)ncnc3n2C)c1C` (configuration not stated) showed an IC50 of 31 nM.
Under `CCn1ncc(-c2nc3c(CC4CCN(C(=O)OC(C)(C)C)C4)ncnc3n2C)c1C` (configuration not stated) stands 560 nM; under `CCn1ncc(-c2nc3c(O[C@H]4CCN(C(=O)c5conc5C)C4)ncnc3n2C)c1C`, 14 nM; under `Cn1c(-c2ccc(-n3ccnc3)cc2)nc2c(O[C@H]3CCN(C(=O)OC(C)(C)C)C3)ncnc21`, 330 nM.
Compound `CCn1c(-c2cnc(OC)c(F)c2)nc2c(O[C@H]3CCN(C(=O)C4CC4)C3)ncnc21` showed an IC50 below 1 nM.
Under `CCn1ncc(-c2nc3c(OC4CCN(C(=O)c5cnco5)C4)ncnc3n2C)c1C` (configuration not stated) stands 17 nM; under `CCn1c(-c2cnc(OC)c(F)c2)nc2c(O[C@H]3CCN(C(=O)C4CC(F)(F)C4)C3)ncnc21`, below 1 nM.
To `CCC(=O)N1CCC(Oc2ncnc3c2nc(-c2cnn(CC)c2C)n3C)CC1` belongs 800 nM; to `CCn1c(-c2cnc(C(F)(F)F)nc2)nc2c(O[C@H]3CCN(C(=O)C4CC4)C3)ncnc21`, 18 nM; to `CCn1c(-c2cnc(OC)c(Cl)c2)nc2c(O[C@H]3CCN(C(=O)C4CC4)C3)ncnc21`, below 1 nM.
To `CCn1ncc(-c2nc3c(O[C@H]4CCN(C(=O)C5CC5)C4)ncnc3n2C)c1C` belongs 6.3 nM.
Consider `CCC(=O)N1CC[C@H](Oc2ncnc3[nH]c(-c4cnn(CC)c4C)nc23)C1`, for which the IC50 stood at 24 nM.
Under `CCn1c(-c2cnc(C)nc2)nc2c(O[C@@H]3CCN(C(=O)N4CC(F)(F)C4)C3)ncnc21` stands 5.9 nM; under `CCn1c(-c2cnc(OC)c(C)c2)nc2c(O[C@H]3CCN(C(=O)OC(C)(C)C)C3)ncnc21`, 0.7 nM.
Compound `CCn1c(-c2cnc(C)nc2)nc2c(O[C@H]3CCN(c4cc(C)ccn4)C3)ncnc21` yielded a 50% inhibitory concentration (IC50) of 4.1 nM.
In the case of `CCn1c(-c2cnc(C(C)(C)C)s2)nc2c(O[C@H]3CCN(C(=O)OC(C)(C)C)C3)ncnc21`, the IC50 turned out to be 0.5 nM.
In turn, `CCn1ncc(-c2nc3c(O[C@H]4CCN(C(=O)c5cnoc5C5CC5)C4)ncnc3n2C)c1C` displayed a half-inhibitory concentration (IC50) of 79 nM. Compared with the last compound, the IC50 is about 160-fold higher.
The compound `CCn1c(-c2cnc(N(C)C)nc2)nc2c(O[C@H]3CCN(C(=O)C4CC4)C3)ncnc21` displayed a half-maximal inhibitory concentration (IC50) of 23 nM.
Under `CCC(=O)N1CC[C@H](Oc2ncnc3c2nc(-c2cnc(OC)c(F)c2)n3C)C1` stands 9.3 nM; under `CCn1ncc(-c2nc3c(O[C@H]4CCN(C(=O)c5cnn6ccccc56)C4)ncnc3n2C)c1C`, 130 nM; under `CCNC(=O)N1CC[C@H](Oc2ncnc3c2nc(-c2cnc(C)nc2)n3CC)C1`, 19 nM.
`CCn1ncc(-c2nc3c(O[C@H]4CCN(C(=O)c5cc(C)nn5C)C4)ncnc3n2C)c1C` returned a half-maximal inhibitory concentration (IC50) of 19 nM.
Turning to `CCC(=O)N1CC[C@H](Oc2ncnc3c2nc(-c2ccc(Cl)nc2)n3C)C1`, the half-maximal inhibitory concentration (IC50) was 16 nM.
To `CCn1c(-c2cnc(C)nc2)nc2c(O[C@H]3CCN(c4nccs4)C3)ncnc21` belongs 44 nM.
`Cn1c(-c2cnn3cccnc23)nc2c(O[C@H]3CCN(C(=O)OC(C)(C)C)C3)ncnc21`: the 50% inhibitory concentration (IC50) amounted to 210 nM.
Under `CCC(=O)N1CC[C@H](S(=O)(=O)c2ncnc3c2nc(-c2cnn(CC)c2C)n3C)C1` stands 210 nM.
`CCn1c(-c2cnc(OC)c(F)c2)nc2c(O[C@H]3CCN(C(=O)C(C)C)C3)ncnc21` registered an IC50 below 1 nM.
`CCC(=O)N1CC[C@H](Oc2ncnc3c2nc(-c2cnn(CC)c2C)n3C)C1` yielded a 50% inhibitory concentration (IC50) of 12 nM.
The compound `CCn1ncc(-c2nc3c(O[C@H]4CCN(C(=O)c5cnoc5C)C4)ncnc3n2C)c1C` came in with an IC50 of 36 nM.
`CCn1c(-c2cnc(C)nc2)nc2c(O[C@H]3CCN(C(=O)C4CNC4)C3)ncnc21` had a half-inhibitory concentration (IC50) of 70 nM.
Under `CCn1ncc(-c2nc3c(O[C@H]4CCN(C(=O)c5cnn(C(C)C)c5)C4)ncnc3n2C)c1C` stands 30 nM; under `CCOC(=O)C(C)NC(=O)N1CC[C@H](Oc2ncnc3c2nc(-c2cnn(CC)c2C)n3C)C1` (some centres not stated), 110 nM.
Under `CCn1c(-c2cnc(C)nc2)nc2c(O[C@H]3CCN(c4cnccn4)C3)ncnc21` stands 32 nM; under `CCn1c(-c2cnc(C)nc2)nc2c(OC3CCN(C(=O)N(C)c4ccccc4)CC3)ncnc21`, 46 nM; under `CCn1c(-c2cnc(C)nc2)nc2c(O[C@H]3CCN(C(=O)C4CCOC4)C3)ncnc21` (some centres not stated), 5.8 nM.
Under `CCn1ncc(-c2nc3c(O[C@H]4CCN(C(=O)c5cn(C)nc5C(F)(F)F)C4)ncnc3n2C)c1C` stands 68 nM.
With `CCn1ncc(-c2nc3c(O[C@H]4CCN(C(=O)C5CCOC(C)(C)C5)C4)ncnc3n2C)c1C` (some centres not stated), the IC50 came to 1.2 nM.
To `CCn1c(-c2cnc(C)nc2)nc2c(OC3CN(Cc4ccccc4)CC3(C)C)ncnc21` (configuration not stated) belongs 28 nM; to `CCn1ncc(-c2nc3c(CC4CCN(C(=O)C5CCOCC5)C4)ncnc3n2C)c1C` (configuration not stated), 290 nM.
As for `CCn1ncc(-c2nc3c(O[C@H]4CCN(c5cc(-n6cccn6)ncn5)C4)ncnc3n2C)c1C`, the IC50 is 216 nM.
To `CCn1ncc(-c2nc3c(O[C@H]4CCN(C(=O)c5[nH]ncc5C)C4)ncnc3n2C)c1C` belongs 3.6 nM.

As usually defined, the IC50 is the point on the concentration scale where inhibition reaches its midpoint.
